Consider 1 compound from PMC7069095, “A cell-permeable peptide-based PROTAC against the oncoprotein CREPT proficiently inhibits pancreatic cancer” (Theranostics, 2020).

The subject of data set [1] is Panc-1 cells. Briefly: Flow cytometry, entry of FITC-labeled peptides into cells. In kind it is cell-based. The following applies: conclusion from flow cytometry of FITC-labeled peptides in pancreatic cancer cells. How it is done:
To examine whether PRTC could permeate into pancreatic cancer cells, we synthesized fluorescein isothiocyanate (FITC) labeled PRTC, PRTC-m, PRTC-v, PRTC-r (PRTC without RRRRK) as well as TAT (a widely used cell penetrating peptide, as a positive control).
Figure 3 Identification of the permeability of PRTC in Panc-1 cells. (A) Entry of FITC- labeled peptides into Panc-1 cells tested by flow cytometry. FITC-TAT is the positive control. Measurements were performed in triplicate. (B) Quantification of cellular uptake of Panc-1 cells treated with different concentrations of FITC-PRTC. (C) Confocal microscope images of Panc-1 cells treated with 10 μM FITC labeled peptides. Scale bars, 10 μm. (D) Confocal microscope images of Panc-1 cells treated with different dosages of FITC-PRTC. Scale bars, 10 μm.

Data set [2] has as its target T1, endogenous CREPT protein in MIA PaCa-2 cells (Homo sapiens, UniProt Q9NQG5).
T1 construct: endogenous protein level of CREPT in Panc-1, AsPc-1 and MIA-PaCa-2 cells; endogenous in cells; host or cells: Panc-1, AsPc-1, MIA PaCa-2
T1 sequence (Q9NQG5 1-326): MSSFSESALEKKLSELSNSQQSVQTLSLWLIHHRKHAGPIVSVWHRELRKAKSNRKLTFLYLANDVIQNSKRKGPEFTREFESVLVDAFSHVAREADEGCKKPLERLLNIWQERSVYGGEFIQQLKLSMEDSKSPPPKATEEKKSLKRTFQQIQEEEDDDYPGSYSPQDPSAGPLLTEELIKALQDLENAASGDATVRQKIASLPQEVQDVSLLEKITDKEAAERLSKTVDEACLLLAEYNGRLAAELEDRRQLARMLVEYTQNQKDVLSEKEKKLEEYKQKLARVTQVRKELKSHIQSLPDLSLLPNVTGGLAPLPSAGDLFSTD
Briefly: Western blot of endogenous CREPT (degradation). In kind it is cell-based. The following applies: 24 h incubation. How it is done: For exogenous immunoprecipitation assays, HEK293T cells were plated in 60 mm dishes and then transfected with the indicated plasmids. After 24 h, cells were harvested using RIPA buffer (50 mM Tris-HCl pH 8.0, 2 mM EDTA pH 8.0, 150 mM NaCl, 1% NP-40, 0.5% sodium deoxycholate, 0.1% SDS) with mixed protease inhibitors. Cell lysates were incubated with 2 μg of the indicated antibodies and 30 μL of protein A/G-Sepharose beads at 4 °C overnight. Beads were eluted five times with lysis buffer (50 mM Tris-HCl pH 7.6, 1 mM EDTA pH 8.0, 165 mM NaCl, 0.5% NP-40), and thereafter, a western blot assay was performed to analyze the association by using the indicated antibodies. Western blot was performed as previously reported. Anti-β-actin and anti-Flag antibodies were purchased from Sigma. Anti-Myc antibody was purchased from Santa Cruz Biotechnology. Antibody against CREPT was produced in the laboratory.
To address whether PRTC could induce CREPT degradation, we examined the endogenous protein level of CREPT in Panc-1, AsPc-1 and MIA-PaCa-2 cells in the presence of different dosages of PRTC. […] Consistently, treatment with PRTC led to decreases in CREPT protein at different times (Figure 5B, S3A). […] To further visualize the degradation process, we stained the endogenous CREPT protein with an antibody against CREPT in the cells treated with FITC-labeled PRTC.
Figure S3. PRTC induces CREPT degradation. […]

Data set [3] has as its system Panc-1 cells. Description: Cell viability assay (CCK-8). In kind it is cell-based. The conditions noted are these: 10 μM, CCK-8, OD450, three individual experiments. The procedure:
Cells were seeded into 96-well plates (1000 cells per well) and cultured for the indicated times. Cell viability was evaluated using a CCK-8 kit (Solarbio, Beijing, China). The value of OD450 was calculated by spectrophotometer and presented as the mean ± standard deviation (SD) from three individual experiments.

Data set [4] concerns AsPc-1 cells. Description: Colony formation. In kind it is cell-based. The following applies: 10 μM, 500 cells per well, 8 days, than the control cells. How it is done: (§1) Cells were seeded into 6-well plates (500 cells per well) and cultured for 10 days, then washed with PBS and stained with 0.1% crystal violet. The number of colonies was counted by ImageJ and presented as the mean ± standard deviation (SD) from three individual experiments. […]
(§2) tumorigenesis in AsPc-1 and MIA PaCa-2 cells. (A-B) Colony formation of AsPc-1 respectively treated with deionized H2O (Ctrl), 10 μM PRTC, 10 μM PRTC-m and 10 μM PRTC-v. Cells were seeded into 6-well plates (500 cells per well) and cultured for 8 days.(C) CellproliferationassayofAsPc-1cellstreatedwith deionizedwater(Ctrl), 10μMPRTC,10μM PRTC-m and 10 μM PRTC-v.(D-E) Colony formation of MIA PaCa-2 respectively treated with deionized H2O (Ctrl), 10 μM PRTC, PRTC-m and PRTC-v.(F) Cell proliferation assay of MIA PaCa-2cells treatedwith deionizedH 2O(Ctrl),10μMPRTC, PRTC-mandPRTC-v. (G)Tumor volumesofxenografttumors,whichweremeasuredbycalipers. V=( a× b2)/2(V isvolume, a is the length of the tumor,b is the width of the tumor). (H) Cell proliferation assay of […]
(§3) is anormal pancreatic epithelial cell line.
(§4) (1 picture or pasted object on this page, not shown here)

The subject of data set [5] is MIA PaCa-2 cells. Briefly: Colony formation. Type of data set: cell-based. The following applies: 10 μM, than the control cells. How it is done: as §1, §2, §3, §4
Data set [6] is described as follows: Body weight and toxicity in mice bearing xenograft tumors. In kind it is in vivo, Balb/c nude mice. The conditions noted are these: 10 mg/kg intraperitoneal, and HPDE6-C7 cells. How it is done: For the xenograft model, 5×10^6 wild-type Panc-1 cells or CREPT knockout Panc-1 cells were subcutaneously injected into 4-week-old female Balb/c nude mice, which were purchased from Beijing Vital River Laboratory Animal Technology Co., Ltd. Each experimental group consisted of five mice. Mice bearing tumors were randomly divided into two groups and administered via intraperitoneal injection control solvent (0.9% saline) or PRTC (dissolved in 0.9% saline, 10 mg/kg) every 2 days for 4 weeks. The body weight of mice were measured every week after treated with 0.9% saline or PRTC. Tumor volume was measured by using the formula V = (a × b^2)/2 (V is volume, a is the length of the tumor, b is the width of the tumor).

Entries after “also recorded” stand apart in the source; their conditions may differ. Non-standard residues stand in square brackets, D forms with d. Residues, ends and D or L forms follow the SMILES beside them. Hyp = O=C(O)[C@@H]1C[C@@H](O)CN1; Ahx = NCCCCCC(=O)O

As for `CC[C@H](C)[C@H](N)C(=O)N[C@@H](Cc1ccc(O)cc1)C(=O)N1C[C@H](O)C[C@H]1C(=O)N[C@@H](C)C(=O)N[C@@H](CC(C)C)C(=O)NCCCCCC(=O)N[C@@H](CCCCN)C(=O)N[C@@H](CC(=O)O)C(=O)N[C@H](C(=O)N[C@@H](CC(C)C)C(=O)N[C@@H](CO)C(=O)N[C@@H](CCC(=O)O)C(=O)N[C@@H](CCCCN)C(=O)N[C@@H](CCC(=O)O)C(=O)N[C@@H](CCCCN)C(=O)N[C@@H](CCCCN)C(=O)N[C@@H](CC(C)C)C(=O)N[C@@H](CCC(=O)O)C(=O)N[C@@H](CCC(=O)O)C(=O)N[C@@H](Cc1ccc(O)cc1)C(=O)N[C@@H](CCCCN)C(=O)N[C@@H](CCC(N)=O)C(=O)N[C@@H](CCCCN)C(=O)N[C@@H](CC(C)C)C(=O)N[C@@H](C)C(=O)N[C@@H](CCCNC(=N)N)C(=O)N[C@H](C(=O)N[C@@H](CCCNC(=N)N)C(=O)N[C@@H](CCCNC(=N)N)C(=O)N[C@@H](CCCNC(=N)N)C(=O)N[C@@H](CCCNC(=N)N)C(=O)N[C@@H](CCCCN)C(=O)O)C(C)C)C(C)C` [PRTC] (H-IY[Hyp]AL[Ahx]KDVLSEKEKKLEEYKQKLARVRRRRK-OH; N-terminus and C-terminus assumed), the cell permeability entry in data set [1] is “strong cell permeability”. In addition, in data set [2], the “CREPT protein level upon different dosages” value is “dramatically decreased”. Besides, in data set [3], the cell proliferation result is “dramatically inhibited”. The colony formation entry in data set [4] and in data set [5] was “fewer colonies” throughout. Further, in data set [6], the toxicity result is listed as “relatively low; also recorded: no toxicity”.
